Experimental data taken from the NIST ThermoML archive (doi:10.1021/je060271a).
Several values for one entry are separate records, joined by “and”; a condition that tells them apart may be missing. Identical values can stand only once.

Conditions: 283.16 K, Liquid, Vibrating tube method

CCCCCC(=O)OCC(COC(=O)CCCCC)(COC(=O)CCCCC)COC(=O)CCCCC [pentaerythritol tetrahexanoate]
Conditions | mass density
227.4 kPa | 1004.4 kg/m3
235.2 kPa | 1004.3 kg/m3
235.3 kPa | 1004.3 kg/m3
237.1 kPa | 1004.4 kg/m3
361.3 kPa | 1004.3 kg/m3
363.1 kPa | 1004.3 kg/m3
365.9 kPa | 1004.3 kg/m3
403.2 kPa | 1004.4 kg/m3
405.8 kPa | 1004.3 kg/m3
408.6 kPa | 1004.4 kg/m3
410.7 kPa | 1004.4 kg/m3
439.2 kPa | 1004.4 kg/m3
500.7 kPa | 1004.3 kg/m3
504.2 kPa | 1004.4 kg/m3
508.2 kPa | 1004.5 kg/m3
663.2 kPa | 1004.4 kg/m3
669.2 kPa | 1004.5 kg/m3
813.4 kPa | 1004.5 kg/m3
1597.6 kPa | 1005.1 kg/m3
1612.4 kPa | 1005 kg/m3
1627.1 kPa | 1005.2 kg/m3
1642.8 kPa | 1005.2 kg/m3
1657.5 kPa | 1005.1 kg/m3
1675.4 kPa | 1005.1 kg/m3
1690.5 kPa | 1005.2 kg/m3
1705.1 kPa | 1005.2 kg/m3
1720 kPa | 1005.1 kg/m3
1767.2 kPa | 1005.1 kg/m3
1782.2 kPa | 1005.2 kg/m3
1800 kPa | 1005.2 kg/m3
1833.4 kPa | 1005.3 kg/m3
1844.8 kPa | 1005.2 kg/m3
2221.4 kPa | 1005.5 kg/m3
2237 kPa | 1005.5 kg/m3
2251.7 kPa | 1005.5 kg/m3
2267.5 kPa | 1005.4 kg/m3
2279.3 kPa | 1005.5 kg/m3
2540.2 kPa | 1005.7 kg/m3
2564.1 kPa | 1005.7 kg/m3
2812.8 kPa | 1005.7 kg/m3
2855.3 kPa | 1005.8 kg/m3
3252.2 kPa | 1006 kg/m3
3270.9 kPa | 1006.1 kg/m3
3286.9 kPa | 1006.1 kg/m3
3302.6 kPa | 1006.1 kg/m3
3318.6 kPa | 1006.2 kg/m3
3372.5 kPa | 1006.1 kg/m3
3388.4 kPa | 1006.1 kg/m3
3420.8 kPa | 1006.1 kg/m3
3440.8 kPa | 1006.1 kg/m3
3456.7 kPa | 1006.1 kg/m3
3473.5 kPa | 1006.1 kg/m3
3493.4 kPa | 1006.3 kg/m3
3510.2 kPa | 1006.3 kg/m3
3530.5 kPa | 1006.2 kg/m3
3547.3 kPa | 1006.3 kg/m3
3564.3 kPa | 1006.2 kg/m3
3581.1 kPa | 1006.3 kg/m3
3601.7 kPa | 1006.3 kg/m3
3619.1 kPa | 1006.3 kg/m3
3636 kPa | 1006.1 kg/m3
3657.3 kPa | 1006.3 kg/m3
3674.7 kPa | 1006.2 kg/m3
3692.2 kPa | 1006.3 kg/m3
3709.8 kPa | 1006.3 kg/m3
3730.8 kPa | 1006.4 kg/m3
3748.8 kPa | 1006.3 kg/m3
3766.1 kPa | 1006.4 kg/m3
3784.2 kPa | 1006.4 kg/m3
3805.3 kPa | 1006.3 kg/m3
3823 kPa | 1006.3 kg/m3
3841.3 kPa | 1006.5 kg/m3
3863 kPa | 1006.3 kg/m3
3877.2 kPa | 1006.4 kg/m3
3895.2 kPa | 1006.5 kg/m3
3920.3 kPa | 1006.4 kg/m3
3938.5 kPa | 1006.5 kg/m3
4764.4 kPa | 1006.8 kg/m3
4769.6 kPa | 1006.9 kg/m3
4781 kPa | 1006.9 kg/m3
4797.5 kPa | 1007 kg/m3
5309.2 kPa | 1007.3 kg/m3
5315.8 kPa | 1007.3 kg/m3
5321.5 kPa | 1007.3 kg/m3
5327.9 kPa | 1007.2 kg/m3
5334.1 kPa | 1007.3 kg/m3
5341.5 kPa | 1007.2 kg/m3
5347.3 kPa | 1007.4 kg/m3
5354.7 kPa | 1007.4 kg/m3
5361.1 kPa | 1007.3 kg/m3
5367.3 kPa | 1007.2 kg/m3
5373.4 kPa | 1007.3 kg/m3
5380.6 kPa | 1007.3 kg/m3
5386.9 kPa | 1007.3 kg/m3
5392.9 kPa | 1007.3 kg/m3
5400.4 kPa | 1007.2 kg/m3
5406.9 kPa | 1007.2 kg/m3
5413 kPa | 1007.3 kg/m3
5419.4 kPa | 1007.3 kg/m3
5426.8 kPa | 1007.3 kg/m3
5432 kPa | 1007.3 kg/m3
5438.4 kPa | 1007.3 kg/m3
5446 kPa | 1007.4 kg/m3
5521.9 kPa | 1007.3 kg/m3
6618.4 kPa | 1007.9 kg/m3
6623.1 kPa | 1008.1 kg/m3
6626.7 kPa | 1008 kg/m3
6630.5 kPa | 1008.2 kg/m3
6653 kPa | 1008 kg/m3
6657.1 kPa | 1008.1 kg/m3
6661.4 kPa | 1008 kg/m3
6666.3 kPa | 1008 kg/m3
6670.4 kPa | 1008 kg/m3
6722 kPa | 1008 kg/m3
6726 kPa | 1008.1 kg/m3
6730.2 kPa | 1008.1 kg/m3
6734.1 kPa | 1008.1 kg/m3
6738.3 kPa | 1008 kg/m3
6743.3 kPa | 1008.1 kg/m3
6747.1 kPa | 1007.9 kg/m3
6750.9 kPa | 1008 kg/m3
6755.6 kPa | 1008 kg/m3
6763.5 kPa | 1008.2 kg/m3
6768 kPa | 1008 kg/m3
6772.6 kPa | 1008 kg/m3
6775.9 kPa | 1008.2 kg/m3 and 1008.1 kg/m3
6776.4 kPa | 1008.1 kg/m3 and 1008 kg/m3
6783.8 kPa | 1008 kg/m3
6784.2 kPa | 1008.2 kg/m3
6784.5 kPa | 1008 kg/m3
6785.8 kPa | 1008.2 kg/m3
8353.5 kPa | 1009.1 kg/m3
8367.6 kPa | 1008.9 kg/m3
9689.3 kPa | 1009.7 kg/m3 and 1009.8 kg/m3
9689.5 kPa | 1009.7 kg/m3
9689.6 kPa | 1009.7 kg/m3
9689.8 kPa | 1009.7 kg/m3
9690.2 kPa | 1009.8 kg/m3
9691.7 kPa | 1009.7 kg/m3
9694.6 kPa | 1009.8 kg/m3
9697.7 kPa | 1009.8 kg/m3
9697.9 kPa | 1009.8 kg/m3 and 1009.9 kg/m3
9702.1 kPa | 1009.8 kg/m3
9711.5 kPa | 1009.8 kg/m3
